Our source for the IC50 values is patent publication US8906944B2, “Compounds as tyrosine kinase modulators” (Allergan, Inc., priority 2009, dated 2014).

pIC50: −log10 of the molar value.

What all share (assay type): biochemical
One experiment concerns the target PDGFβ (Homo sapiens, UniProt P09619). Description: PDGFβ enzyme assay. Particulars: Table IV, amide or urea linker.
The target of a further experiment is VEGFR1 (Homo sapiens, UniProt P17948). Description: VEGFR1 enzyme assay. Particulars: Table IV, amide or urea linker.
Experiment [1] has as its target T1, human VEGF receptor (VEGFR-2) (Homo sapiens, UniProt P35968).
T1 construct: The cytoplasmic domain of the human VEGF receptor (VEGFR-2) was expressed; His; made in house; host or cells: insect cells (baculovirus)
Description: VEGFR2 kinase assay. Conditions: His-VEGFR-2 cytoplasmic domain, 3.6 μM ATP; Table IV, amide or urea linker; read-out: VEGFR2 Enzyme IC50. As for the experimental part:
The cytoplasmic domain of the human VEGF receptor (VEGFR-2) was expressed as a Histidine-tagged fusion protein following infection of insect cells using an H is engineered baculovirus. […] Kinase assays were performed in 96 well microtiter plates that were coated overnight with 30 µg of poly-Glu-Tyr (4:1) in 10 mM Phosphate Buffered Saline (PBS), pH 7.2-7.4. The plates were incubated with 1% BSA and then washed four times with PBS prior to starting the reaction. Reactions were carried out in 120 µL reaction volumes containing 3.6 µM ATP in kinase buffer (50 mM Hepes buffer pH 7.4, 20 mM MgCl2, 0.1 mM MnCl2 and 0.2 mM Na3 VO4). […] Reactions were initiated by the addition 0.5 ng of purified protein. Following a ten minute incubation at 25 degree. […] IC50 values for compound inhibition were calculated directly from graphs of optical density (arbitrary units) versus compound concentration following subtraction of blank values.

T1 sequence (P35968 786-1356 limits assumed): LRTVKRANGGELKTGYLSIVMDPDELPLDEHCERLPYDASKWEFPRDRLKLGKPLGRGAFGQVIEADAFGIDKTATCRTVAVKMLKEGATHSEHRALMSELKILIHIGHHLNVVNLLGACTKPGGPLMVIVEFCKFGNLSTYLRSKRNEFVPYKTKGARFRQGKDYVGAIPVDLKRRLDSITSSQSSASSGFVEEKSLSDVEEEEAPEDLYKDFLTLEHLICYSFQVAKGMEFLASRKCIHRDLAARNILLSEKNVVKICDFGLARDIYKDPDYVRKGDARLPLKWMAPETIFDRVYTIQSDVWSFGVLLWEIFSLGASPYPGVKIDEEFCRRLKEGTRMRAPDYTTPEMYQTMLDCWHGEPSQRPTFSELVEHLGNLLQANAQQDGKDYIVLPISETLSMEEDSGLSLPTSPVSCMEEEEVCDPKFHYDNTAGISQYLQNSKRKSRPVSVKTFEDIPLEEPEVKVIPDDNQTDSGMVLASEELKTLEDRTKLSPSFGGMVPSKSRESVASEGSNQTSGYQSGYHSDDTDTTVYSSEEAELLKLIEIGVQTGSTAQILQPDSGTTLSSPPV
VEGFR1, sequence (P17948 27-1338, species assumed): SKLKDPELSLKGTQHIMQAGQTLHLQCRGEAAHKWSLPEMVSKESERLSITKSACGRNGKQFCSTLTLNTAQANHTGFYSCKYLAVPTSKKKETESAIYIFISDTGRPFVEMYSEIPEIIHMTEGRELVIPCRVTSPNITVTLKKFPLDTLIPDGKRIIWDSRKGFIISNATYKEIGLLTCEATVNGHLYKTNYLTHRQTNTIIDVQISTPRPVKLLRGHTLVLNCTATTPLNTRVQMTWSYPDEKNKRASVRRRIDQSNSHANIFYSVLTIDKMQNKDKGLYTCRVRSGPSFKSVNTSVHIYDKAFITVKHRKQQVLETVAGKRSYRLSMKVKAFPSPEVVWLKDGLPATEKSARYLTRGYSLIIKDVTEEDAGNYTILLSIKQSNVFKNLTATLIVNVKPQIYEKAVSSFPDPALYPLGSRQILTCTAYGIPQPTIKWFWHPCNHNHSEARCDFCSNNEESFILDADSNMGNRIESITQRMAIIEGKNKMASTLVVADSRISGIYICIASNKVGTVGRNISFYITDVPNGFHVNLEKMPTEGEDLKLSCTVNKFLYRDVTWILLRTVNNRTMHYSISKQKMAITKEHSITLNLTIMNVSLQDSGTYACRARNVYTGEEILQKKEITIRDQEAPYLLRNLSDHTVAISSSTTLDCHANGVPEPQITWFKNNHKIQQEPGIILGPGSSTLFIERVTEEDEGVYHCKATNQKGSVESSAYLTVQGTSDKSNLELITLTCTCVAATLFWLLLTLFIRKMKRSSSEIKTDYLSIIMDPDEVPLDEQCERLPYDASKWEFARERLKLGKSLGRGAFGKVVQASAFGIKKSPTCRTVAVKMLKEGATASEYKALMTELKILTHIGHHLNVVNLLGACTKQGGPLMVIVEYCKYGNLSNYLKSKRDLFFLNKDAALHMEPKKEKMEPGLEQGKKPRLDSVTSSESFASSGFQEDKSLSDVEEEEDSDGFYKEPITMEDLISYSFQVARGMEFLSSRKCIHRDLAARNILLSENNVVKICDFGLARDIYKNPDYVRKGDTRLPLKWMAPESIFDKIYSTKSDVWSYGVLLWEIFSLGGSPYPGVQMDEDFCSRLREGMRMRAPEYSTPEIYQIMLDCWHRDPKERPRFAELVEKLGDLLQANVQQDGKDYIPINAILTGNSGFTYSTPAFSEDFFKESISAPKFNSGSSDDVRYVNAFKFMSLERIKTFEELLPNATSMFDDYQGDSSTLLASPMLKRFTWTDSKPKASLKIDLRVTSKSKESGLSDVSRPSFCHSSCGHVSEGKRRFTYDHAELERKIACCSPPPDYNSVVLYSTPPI
PDGFβ, sequence (P09619 33-1106): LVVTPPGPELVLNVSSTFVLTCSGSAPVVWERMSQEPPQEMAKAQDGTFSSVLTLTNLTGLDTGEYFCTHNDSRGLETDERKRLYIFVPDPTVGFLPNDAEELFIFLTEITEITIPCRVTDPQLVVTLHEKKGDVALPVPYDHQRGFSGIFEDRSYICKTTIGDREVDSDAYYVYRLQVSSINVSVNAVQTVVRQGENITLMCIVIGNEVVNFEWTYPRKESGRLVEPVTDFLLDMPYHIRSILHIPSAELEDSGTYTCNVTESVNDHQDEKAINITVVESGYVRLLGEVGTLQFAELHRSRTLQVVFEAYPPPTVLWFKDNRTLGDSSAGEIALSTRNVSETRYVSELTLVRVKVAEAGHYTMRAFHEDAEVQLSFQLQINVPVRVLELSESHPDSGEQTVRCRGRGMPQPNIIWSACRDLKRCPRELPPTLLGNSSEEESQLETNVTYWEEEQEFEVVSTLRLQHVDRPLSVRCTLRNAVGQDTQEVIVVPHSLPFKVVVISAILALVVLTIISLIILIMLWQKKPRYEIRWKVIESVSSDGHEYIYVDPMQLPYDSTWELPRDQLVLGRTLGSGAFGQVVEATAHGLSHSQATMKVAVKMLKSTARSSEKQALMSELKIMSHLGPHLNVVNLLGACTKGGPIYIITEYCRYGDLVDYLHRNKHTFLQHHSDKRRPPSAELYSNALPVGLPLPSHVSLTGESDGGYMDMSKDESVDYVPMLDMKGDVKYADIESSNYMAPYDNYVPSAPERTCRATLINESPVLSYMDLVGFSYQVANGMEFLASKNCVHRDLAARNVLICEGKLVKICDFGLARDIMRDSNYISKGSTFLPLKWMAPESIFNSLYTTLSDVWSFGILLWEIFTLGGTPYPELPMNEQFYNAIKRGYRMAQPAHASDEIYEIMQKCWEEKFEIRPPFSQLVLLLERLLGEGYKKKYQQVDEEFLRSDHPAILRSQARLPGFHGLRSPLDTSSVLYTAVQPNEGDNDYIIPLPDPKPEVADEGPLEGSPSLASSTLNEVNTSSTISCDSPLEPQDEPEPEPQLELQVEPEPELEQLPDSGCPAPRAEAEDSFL

What is called pIC50 is the IC50 on a negative log10 scale, so that one unit is a factor of ten. With `CCNC(=O)CC[C@H](NC(=O)c1c[nH]c(-c2cc(Oc3cc(C(=O)Nc4cc(C)ccc4F)ccc3F)ccn2)c1)C(=O)NCC` (stereo in doubt) [Example 246, N,N′-diethyl-2-[({5-[4-(2-fluoro-5-{[(2-fluoro-5-methylphenyl)amino]carbonyl}phenoxy)pyridin-2-yl]-1H-pyrrol-3-yl}carbonyl)amino]pentanediamide], the pIC50 on PDGFβ is 7.27; on VEGFR1 it was 7.21; in experiment [1], 7.38.

Take `Cc1ccc(F)c(NC(=O)c2ccc(F)c(Oc3ccnc(-c4cc(C(=O)N[C@@H](CCC(=O)O)C(=O)O)c[nH]4)c3)c2)c1` (stereo in doubt) [Example 248, 2-[({5-[4-(2-fluoro-5-{[(2-fluoro-5-methylphenyl)amino]carbonyl}phenoxy)pyridin-2-yl]-1H-pyrrol-3-yl}carbonyl)amino]pentanedioic acid]: the pIC50 against PDGFβ was 6.80; against VEGFR1, 7.55; in experiment [1], 7.25.

Take `Cc1ccc(F)c(NC(=O)Nc2ccc(Oc3ccnc(-c4cc(C(=O)NCCCc5nn[nH]n5)c[nH]4)c3)cc2)c1` [Example 149, 5-{4-[4-({[(2-fluoro-5-methylphenyl)amino]carbonyl}amino)phenoxy]pyridin-2-yl}-N-[3-(2H-tetrazol-5-yl)propyl]-1H-pyrrole-3-carboxamide]: the pIC50 against PDGFβ was 7.89; against VEGFR1, 8.22; in experiment [1], 8.40.

With `Cc1ccc(F)c(NC(=O)Nc2ccc(Oc3ccnc(-c4cc(C(=O)NCCc5nn[nH]n5)c[nH]4)c3)cc2)c1` [Example 150, 5-{4-[4-({[(2-fluoro-5-methylphenyl)amino]carbonyl}amino)phenoxy]pyridin-2-yl}-N-[2-(2H-tetrazol-5-yl)ethyl]-1H-pyrrole-3-carboxamide], the pIC50 was 7.80 against PDGFβ, 8.15 against VEGFR1 and 8.30 in experiment [1].

For the molecule `Cc1ccc(F)c(NC(=O)Nc2ccc(Oc3ccnc(-c4cc(C(=O)NCCCN5CCCC(CO)C5)c[nH]4)c3)cc2)c1` (stereo not drawn) [Example 160, 5-{4-[4-({[(2-fluoro-5-methylphenyl)amino]carbonyl}amino)phenoxy]pyridin-2-yl}-N-{3-[3-(hydroxymethyl)piperidin-1-yl]propyl}-1H-pyrrole-3-carboxamide], the pIC50 against PDGFβ is 7.72; against VEGFR1, 8.15; in experiment [1], 8.05.

For the molecule `Cc1ccc(F)c(NC(=O)Nc2ccc(Oc3ccnc(-c4cc(C(=O)NCCCCC(=O)O)c[nH]4)c3)cc2)c1` [Example 166, 5-{[(5-{4-[4-({[(2-fluoro-5-methylphenyl)amino]carbonyl}amino)phenoxy]pyridin-2-yl}-1H-pyrrol-3-yl)carbonyl]amino}pentanoic acid], the pIC50 was 7.96 against PDGFβ, 8.22 on VEGFR1 and 8.30 in experiment [1].

For `COC(=O)CNCCCNC(=O)c1c[nH]c(-c2cc(Oc3cc(C(=O)Nc4cc(C)ccc4F)ccc3F)ccn2)c1` [Example 180, methyl ({3-[({5-[4-(2-fluoro-5-{[(2-fluoro-5-methylphenyl)amino]carbonyl}phenoxy)pyridin-2-yl]-1H-pyrrol-3-yl}carbonyl)amino]propyl}amino)acetate], the pIC50 at PDGFβ is 7.28; against VEGFR1 it was 7.49; in experiment [1] it was 7.85.

Regarding `COC(=O)CNCCNC(=O)c1c[nH]c(-c2cc(Oc3cc(C(=O)Nc4cc(C)ccc4F)ccc3F)ccn2)c1` [Example 181, methyl ({2-[({5-[4-(2-fluoro-5-{[(2-fluoro-5-methylphenyl)amino]carbonyl}phenoxy)pyridin-2-yl]-1H-pyrrol-3-yl}carbonyl)amino]ethyl}amino)acetate], the pIC50 against PDGFβ is 6.88; against VEGFR1, 7.19; in experiment [1], 7.66.

Turning to `Cc1ccc(F)c(NC(=O)c2ccc(F)c(Oc3ccnc(-c4cc(C(=O)NCCCN5CCC(O)CC5)c[nH]4)c3)c2)c1` [Example 184, 5-[4-(2-fluoro-5-{[(2-fluoro-5-methylphenyl)amino]carbonyl}phenoxy)pyridin-2-yl]-N-[3-(4-hydroxypiperidin-1-yl)propyl]-1H-pyrrole-3-carboxamide], the pIC50 was 7.31 on PDGFβ, 7.29 against VEGFR1 and 7.72 in experiment [1].

Consider `Cc1ccc(F)c(NC(=O)c2ccc(F)c(Oc3ccnc(-c4cc(C(=O)NCCCN5CCCC5)c[nH]4)c3)c2)c1` [Example 187, 5-[4-(2-fluoro-5-{[(2-fluoro-5-methylphenyl)amino]carbonyl}phenoxy)pyridin-2-yl]-N-(3-pyrrolidin-1-ylpropyl)-1H-pyrrole-3-carboxamide], for which the pIC50 against PDGFβ was 7.01; on VEGFR1, 7.57; in experiment [1], 7.82.

On to `Cc1ccc(F)c(NC(=O)Nc2ccc(Oc3ccnc(-c4cc(C(=O)NCCCN(C)CC(O)CO)c[nH]4)c3)cc2F)c1` (stereo not drawn) [Example 195, N-{3-[(2,3-dihydroxypropyl)(methyl)amino]propyl}-5-{4-[3-fluoro-4-({[(2-fluoro-5-methylphenyl)amino]carbonyl}amino)phenoxy]pyridin-2-yl}-1H-pyrrole-3-carboxamide], for which the pIC50 against PDGFβ was 7.72; against VEGFR1, 8.05; in experiment [1], 8.15.

Take `COC(=O)CNCCCNC(=O)c1c[nH]c(-c2cc(Oc3ccc(NC(=O)Nc4cc(C)ccc4F)c(F)c3)ccn2)c1` [Example 196, methyl [(3-{[(5-{4-[3-fluoro-4-({[(2-fluoro-5-methylphenyl)amino]carbonyl}amino)phenoxy]pyridin-2-yl}-1H-pyrrol-3-yl)carbonyl]amino}propyl)amino]acetate]: the pIC50 on PDGFβ was 7.72; against VEGFR1 it was 8.00; in experiment [1], 8.10.

For `Cc1ccc(F)c(NC(=O)Nc2ccc(Oc3ccnc(-c4cc(C(=O)NCCCN5CCCC(CO)C5)c[nH]4)c3)cc2F)c1` (stereo not drawn) [Example 205, 5-{4-[3-fluoro-4-({[(2-fluoro-5-methylphenyl)amino]carbonyl}amino)phenoxy]pyridin-2-yl}-N-{3-[3-(hydroxymethyl)piperidin-1-yl]propyl}-1H-pyrrole-3-carboxamide], the results for the pIC50 (against PDGFβ; against VEGFR1; in experiment [1]) were 7.82, 8.05 and 8.10, respectively.

As to `Cc1ccc(F)c(NC(=O)Nc2ccc(Oc3ccnc(-c4cc(C(=O)NCCCN5CCOC(CO)C5)c[nH]4)c3)cc2F)c1` (stereo not drawn) [Example 206, 5-{4-[3-fluoro-4-({[(2-fluoro-5-methylphenyl)amino]carbonyl}amino)phenoxy]pyridin-2-yl}-N-{3-[2-(hydroxymethyl)morpholin-4-yl]propyl}-1H-pyrrole-3-carboxamide], the pIC50 is 7.77 against PDGFβ, 7.92 at VEGFR1 and 8.05 in experiment [1].

Consider `Cc1ccc(F)c(NC(=O)Nc2ccc(Oc3ccnc(-c4cc(C(=O)NCCCN5CCC(O)CC5)c[nH]4)c3)cc2F)c1` [Example 207, 5-{4-[3-fluoro-4-({[(2-fluoro-5-methylphenyl)amino]carbonyl}amino)phenoxy]pyridin-2-yl}-N-[3-(4-hydroxypiperidin-1-yl)propyl]-1H-pyrrole-3-carboxamide], for which the values for the pIC50 (against PDGFβ; on VEGFR1; in experiment [1]) were 7.77, 8.00 and 8.15, respectively.

On to `Cc1ccc(F)c(NC(=O)Nc2ccc(Oc3ccnc(-c4cc(C(=O)NCC(=O)O)c[nH]4)c3)cc2F)c1` [Example 210, {[(5-{4-[3-fluoro-4-({[(2-fluoro-5-methylphenyl)amino]carbonyl}amino)phenoxy]pyridin-2-yl}-1H-pyrrol-3-yl)carbonyl]amino}acetic acid], for which the pIC50 against PDGFβ is 7.89; against VEGFR1, 8.10; in experiment [1] it was 7.92.

As to `Cc1ccc(F)c(NC(=O)Nc2ccc(Oc3ccnc(-c4cc(C(=O)NCCCN(CC(=O)O)CC(=O)O)c[nH]4)c3)cc2)c1` [Example 214, 2,2′-[(3-{[(5-{4-[4-({[(2-fluoro-5-methylphenyl)amino]carbonyl}amino)phenoxy]pyridin-2-yl}-1H-pyrrol-3-yl)carbonyl]amino}propyl)imino]diacetic acid], the values for the negative logarithm of the IC50 (pIC50) (against PDGFβ; on VEGFR1; in experiment [1]) were 7.64, 8.10 and 7.66, respectively.

In the case of `Cc1ccc(F)c(NC(=O)Nc2ccc(Oc3ccnc(-c4cc(C(=O)N5CCN(CC(=O)O)CC5)c[nH]4)c3)cc2F)c1` [Example 218, {4-[(5-{4-[3-fluoro-4-({[(2-fluoro-5-methylphenyl)amino]carbonyl}amino)phenoxy]pyridin-2-yl}-1H-pyrrol-3-yl)carbonyl]piperazin-1-yl}acetic acid], the pIC50 was 7.80 against PDGFβ, 8.05 against VEGFR1 and 8.30 in experiment [1].

Regarding `Cc1ccc(F)c(NC(=O)Nc2ccc(Oc3ccnc(-c4cc(C(=O)NCCCN5CCCC5C(=O)O)c[nH]4)c3)cc2F)c1` (stereo not drawn) [Example 220, 1-(3-{[(5-{4-[3-fluoro-4-({[(2-fluoro-5-methylphenyl)amino]carbonyl}amino)phenoxy]pyridin-2-yl}-1H-pyrrol-3-yl)carbonyl]amino}propyl)pyrrolidine-2-carboxylic acid], the pIC50 at PDGFβ is 7.64; at VEGFR1, 7.96; in experiment [1] it was 7.89.
